This assay addresses T1, IGF-1R Ba/F3 (Homo sapiens, UniProt P08069).
T1 construct: fused on or other part: TEL- (or BCR-) IGF-1R in Ba/F3: the kinase part holds the site
As to the kind of experiment: Ba/F3 Cell Viability Inhibition Assay (IGF-1R Ba/F3). The class given is cell-based, murine. The conditions noted are these: Tel-TK transformed Ba/F3 cells, 48 hours, Britelite luminescence. The gist of the method: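 IL-3-independent murine Ba/F3 cells transformed with a TEL/BCR-fused IGF-1R kinase were seeded at 3750 cells/well and exposed to serially diluted compound for 48 h at 37 °C. Viability was read by Britelite luminescence. IC50 is the concentration giving 50% of DMSO-control viability, from a logistic fit.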
T1 sequence (P08069 999-1274 limits assumed): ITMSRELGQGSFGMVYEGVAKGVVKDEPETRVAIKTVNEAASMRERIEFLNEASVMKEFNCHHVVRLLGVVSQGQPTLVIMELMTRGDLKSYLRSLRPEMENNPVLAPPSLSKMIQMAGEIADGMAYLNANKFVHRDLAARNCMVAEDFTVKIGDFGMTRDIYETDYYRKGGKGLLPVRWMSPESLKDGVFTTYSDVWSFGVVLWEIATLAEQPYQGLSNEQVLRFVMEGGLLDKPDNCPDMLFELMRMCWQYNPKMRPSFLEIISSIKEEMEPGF
The IC50 is the concentration that gives 50% inhibition. A higher IC50 goes with weaker potency in that assay. With `CC[N+]1([O-])CCC(c2cc(F)c(Nc3ncc(Cl)c(Nc4cc(C)[nH]n4)n3)cc2C)CC1` (stereo not shown) [Compound 289, 4-(4-(5-chloro-4-(5-methyl-1H-pyrazol-3-ylamino)pyrimidin-2-ylamino)-5-fluoro-2-methylphenyl)-1-ethylpiperidine-1-oxide], the IC50 was 370 nM. `Cc1cc(C2CCN(C(=O)CN(C)C)CC2)c(C)cc1Nc1ncc(Cl)c(Nc2cc(C(F)(F)F)[nH]n2)n1` [Compound 223, 1-(4-(4-(5-chloro-4-(5-(trifluoromethyl)-1H-pyrazol-3-ylamino)pyrimidin-2-ylamino)-2,5-dimethylphenyl)piperidin-1-yl)-2-(dimethylamino)ethanone] registered an IC50 of 36 nM.

`COCC(=O)N1CCC(c2cc(C)c(Nc3ncc(Cl)c(Nc4cc(C)[nH]n4)n3)cc2C)CC1` [Compound 106, 1-(4-(4-(5-chloro-4-(5-methyl-1H-pyrazol-3-ylamino)pyrimidin-2-ylamino)-2,5-dimethylphenyl)piperidin-1-yl)-2-methoxyethanone]: the IC50 came to 2 nM. The same measure for `Cc1cc(Nc2nc(Nc3cc(C)c(C4CCN(C5CCN(S(C)(=O)=O)C5)CC4)cc3F)ncc2Cl)n[nH]1` (stereo not shown) [Compound 301, 5-chloro-N2-(2-fluoro-5-methyl-4-(1-(1-(methylsulfonyl)pyrrolidin-3-yl)piperidin-4-yl)phenyl)-N4-(5-methyl-1H-pyrazol-3-yl)pyrimidine-2,4-diamine]: 38 nM; for `Cc1cc(Nc2nc(Nc3cc(C)c(C4CCN(C(=O)[C@H]5CCCN5C)CC4)cc3C)ncc2Cl)n[nH]1` [Compound 133, (R)-(4-(4-(5-chloro-4-(5-methyl-1H-pyrazol-3-ylamino)pyrimidin-2-ylamino)-2,5-dimethylphenyl)piperidin-1-yl)(1-methylpyrrolidin-2-yl)methanone]: 13 nM; for `CCc1cc(Nc2nc(Nc3cc(C)c(C4CCN(C)CC4)cc3F)ncc2Cl)n[nH]1` [Compound 271, 5-chloro-N4-(5-ethyl-1H-pyrazol-3-yl)-N2-(2-fluoro-5-methyl-4-(1-methylpiperidin-4-yl)phenyl)pyrimidine-2,4-diamine]: 13 nM. As to `Cc1cc(Nc2nc(Nc3cc(C#N)c(C4CCN(C)CC4)cc3C)ncc2Cl)n[nH]1` [Compound 286, 5-(5-chloro-4-(5-methyl-1H-pyrazol-3-ylamino)pyrimidin-2-ylamino)-4-methyl-2-(1-methylpiperidin-4-yl)benzonitrile], the IC50 turned out to be 37 nM. Regarding `Cc1cc(Nc2nc(Nc3cc(C)c(C4CCN(C(N)=O)CC4)cc3C)ncc2Cl)n[nH]1` [Compound 72, 4-(4-(5-chloro-4-(5-methyl-1H-pyrazol-3-ylamino)pyrimidin-2-ylamino)-2,5-dimethylphenyl)piperidine-1-carboxamide], the IC50 turned out to be 6 nM. With `CCNC(=O)C(CC)N1CCC(c2cc(C)c(Nc3ncc(Cl)c(Nc4cc(C)[nH]n4)n3)cc2C)CC1` (stereo not shown) [Compound 190, 2-(4-(4-(5-chloro-4-(5-methyl-1H-pyrazol-3-ylamino)pyrimidin-2-ylamino)-2,5-dimethylphenyl)piperidin-1-yl)-N-ethylbutanamide], the IC50 came out at 7 nM. `Cc1cc(Nc2nc(Nc3cc(C(F)(F)F)c(C4CCN(CC(N)=O)CC4)cc3F)ncc2Cl)n[nH]1` [Compound 36, 2-(4-(4-(5-chloro-4-(5-methyl-1H-pyrazol-3-ylamino)pyrimidin-2-ylamino)-5-fluoro-2-(trifluoromethyl)phenyl)piperidin-1-yl)acetamide]: inhibition was half-maximal at 19 nM (IC50). This IC50 is about 2.7-fold higher than that of the molecule before. To `CCc1cc(Nc2nc(Nc3cc(C)c(C4CCN(CC)CC4)cc3F)ncc2Cl)n[nH]1` [Compound 268, 5-chloro-N4-(5-ethyl-1H-pyrazol-3-yl)-N2-(4-(1-ethylpiperidin-4-yl)-2-fluoro-5-methylphenyl)pyrimidine-2,4-diamine] belongs 22 nM; to `Cc1cc(Nc2nc(Nc3cc(C)c(C4CCN(CC(F)(F)F)CC4)cc3F)ncc2Cl)n[nH]1` [Compound 26, 5-chloro-N2-(2-fluoro-5-methyl-4-(1-(2,2,2-trifluoroethyl)piperidin-4-yl)phenyl)-N4-(5-methyl-1H-pyrazol-3-yl)pyrimidine-2,4-diamine], 142 nM; to `Cc1cc(Nc2nc(Nc3cc(C)c(C4CCN(CCCC(=O)N5CCOCC5)CC4)cc3F)ncc2Cl)n[nH]1` [Compound 246, 4-(4-(4-(5-Chloro-4-(5-methyl-1H-pyrazol-3-ylamino)pyrimidin-2-ylamino)-5-fluoro-2-methylphenyl)piperidin-1-yl)-1-morpholinobutan-1-one], 58 nM. The same measure for `Cc1cc(Nc2nc(Nc3cc(C)c(C4CCN(C5CCS(=O)(=O)C5)CC4)cc3F)ncc2Cl)n[nH]1` (stereo not shown) [Compound 145, 5-chloro-N^2-(2-fluoro-5-methyl-4-(1-(tetrahydro-1,1-dioxido-3-thienyl)piperidin-4-yl)phenyl)-N^4-(5-methyl-1H-pyrazol-3-yl)pyrimidine-2,4-diamine]: 18 nM; for `Cc1cc(Nc2nc(Nc3cc(C)c(C4CCN(C(=O)C5CN(C)C5)CC4)cc3C)ncc2Cl)n[nH]1` [Compound 120, (4-(4-(5-chloro-4-(5-methyl-1H-pyrazol-3-ylamino)pyrimidin-2-ylamino)-2,5-dimethylphenyl)piperidin-1-yl)(1-methylazetidin-3-yl)methanone]: 25 nM. As for `Cc1cc(Nc2nc(Nc3cc(C)c(C4CCN(Cc5c(C)noc5C)CC4)cc3C)ncc2Cl)n[nH]1` [Compound 20, 5-chloro-N2-(4-(1-((3,5-dimethylisoxazol-4-yl)methyl)piperidin-4-yl)-2,5-dimethylphenyl)-N4-(5-methyl-1H-pyrazol-3-yl)pyrimidine-2,4-diamine], the midpoint of inhibition, the IC50, lay at 11 nM. Consider `Cc1cc(Nc2nc(Nc3cc(C)c(C4CCN(S(C)(=O)=O)CC4)cc3C)ncc2Cl)n[nH]1` [Compound 63, 5-chloro-N2-(2,5-dimethyl-4-(1-(methylsulfonyl)piperidin-4-yl)phenyl)-N4-(5-methyl-1H-pyrazol-3-yl)pyrimidine-2,4-diamine], for which the half-maximal inhibitory concentration (IC50) came out at 2 nM. Turning to `CNC(=O)CN1CCC[C@@H](c2cc(C)c(Nc3ncc(Cl)c(Nc4cc(C)[nH]n4)n3)cc2C)C1` (single isomer, unassigned) [Compound 208], the IC50 turned out to be 10 nM. This IC50 lies about 5-fold higher than the previous one.

`CCS(=O)(=O)CCN1CCC(c2cc(F)c(Nc3ncc(Cl)c(Nc4cc(C)[nH]n4)n3)cc2C)CC1` [Compound 57, 5-chloro-N2-(4-(1-(2-(ethylsulfonyl)ethyl)piperidin-4-yl)-2-fluoro-5-methylphenyl)-N4-(5-methyl-1H-pyrazol-3-yl)pyrimidine-2,4-diamine] had an IC50 of 21 nM.

The molecule `Cc1cc(Nc2nc(Nc3cc(C)c(C4CCN([C@H]5CC[C@@H](O)CC5)CC4)cc3F)ncc2Cl)n[nH]1` [Compound 311, Cis-4-(4-(4-(5-chloro-4-(5-methyl-1H-pyrazol-3-ylamino)pyrimidin-2-ylamino)-5-fluoro-2-methylphenyl)piperidin-1-yl)cyclohexanol] registered an IC50 of 21 nM. For the molecule `Cc1cc(Nc2nc(Nc3cc(C)c(C4CCN(C(=O)OCCN(C)C)CC4)cc3F)ncc2Cl)n[nH]1` [Compound 108, (dimethylamino)ethyl 4-(4-(5-chloro-4-(5-methyl-1H-pyrazol-3-ylamino)pyrimidin-2-ylamino)-5-fluoro-2-methylphenyl)piperidine-1-carboxylate], it took 53 nM to reach half-maximal inhibition (IC50). Molecule `Cc1cc(Nc2nc(Nc3cc(C)c(C4CCN(C(=O)CN5C(C)CCCC5C)CC4)cc3C)ncc2Cl)n[nH]1` (stereo not shown) [Compound 103, 1-(4-(4-(5-chloro-4-(5-methyl-1H-pyrazol-3-ylamino)pyrimidin-2-ylamino)-2,5-dimethylphenyl)piperidin-1-yl)-2-(2,6-dimethylpiperidin-1-yl)ethanone] returned an IC50 of 9 nM. As to `Cc1cc(Nc2nc(Nc3cc(C)c(C4CCN(C(C)C)CC4)cc3C)ncc2Cl)n[nH]1` [Compound 12, 5-chloro-N2-(4-(1-isopropylpiperidin-4-yl)-2,5-dimethylphenyl)-N4-(5-methyl-1H-pyrazol-3-yl)pyrimidine-2,4-diamine], half-maximal inhibition (IC50) was put at 10 nM. Consider `Cc1cc(Nc2nc(Nc3cc(C)c(C4CCN(C(=O)C5(N(C)C)CCC5)CC4)cc3C)ncc2Cl)n[nH]1` [Compound 92, (4-(4-(5-chloro-4-(5-methyl-1H-pyrazol-3-ylamino)pyrimidin-2-ylamino)-2,5-dimethylphenyl)piperidin-1-yl)(1-(dimethylamino)cyclobutyl)methanone], for which half-maximal inhibition (IC50) was put at 15 nM. `Cc1cc(Nc2nc(Nc3cc(C)c(C4CCN(CCC(=O)NC5CC5)CC4)cc3F)ncc2Cl)n[nH]1` [Compound 247, 3-(4-(4-(5-chloro-4-(5-methyl-1H-pyrazol-3-ylamino)pyrimidin-2-ylamino)-5-fluoro-2-methylphenyl)piperidin-1-yl)-N-cyclopropylpropanamide]: inhibition was half-maximal at 62 nM (IC50). Compared with the last molecule, the IC50 is about 4.1-fold higher. For the molecule `Cc1cc(Nc2ncc(Cl)c(Nc3cc(C(F)(F)F)[nH]n3)n2)c(F)cc1C1CCNCC1` [Compound 171, 5-chloro-N2-(2-fluoro-5-methyl-4-(piperidin-4-yl)phenyl)-N4-(5-(trifluoromethyl)-1H-pyrazol-3-yl)pyrimidine-2,4-diamine], the IC50 was determined as 67 nM. The molecule `Cc1cc(Nc2ncc(Cl)c(Nc3cc(C(F)(F)F)[nH]n3)n2)c(F)cc1C1CCN(CC(N)=O)CC1` [Compound 173, 2-(4-(4-(5-chloro-4-(5-(trifluoromethyl)-1H-pyrazol-3-ylamino)pyrimidin-2-ylamino)-5-fluoro-2-methylphenyl)piperidin-1-yl)acetamide] yielded an IC50 of 49 nM. `Cc1noc(CN2CCC(c3cc(F)c(Nc4ncc(Cl)c(Nc5cc(C)[nH]n5)n4)cc3C)CC2)n1` [Compound 293, 5-chloro-N2-(2-fluoro-5-methyl-4-(1-((3-methyl-1,2,4-oxadiazol-5-yl)methyl)piperidin-4-yl)phenyl)-N4-(5-methyl-1H-pyrazol-3-yl)pyrimidine-2,4-diamine]: the IC50 was 26 nM. This IC50 is about 1.9-fold lower than that of the molecule before.

These data come from patent US8859574B2 (IRM LLC, priority 2008, dated 2014).
